Measurements: patent US8080582B2, “Derivatives of 8-epiblechnic acid and their effects on down-regulation of endothelin (ETA) receptor mRNA” (ScinoPharm Taiwan Ltd., priority 2008, dated 2011)
“Also recorded” adds a separate entry of the source. Read-outs that look alike come from different tables or passages of the source.

Columns and labels:
Type in all cases: cell-based
[1] = system: endothelin receptor mRNA expression; test: PCR of endothelin receptor mRNA expression in vascular smooth muscle cells; conditions: 100 μg/ml, 48 hrs, PCR 25 or 30 reaction cycles
Description: Extraction of cellular RNA: Subculturing smooth muscle cells to 100-mm culture dishes. After the cells had filled the culture dishes, Sal-B and its analogs were added to treat the cells for 48 hrs. After that, 1×PBS solutions were added to wash the cells three times. After adding 1 ml TRIzol, the cells were scraped off and placed in 1.5 ml micro-centrifuge tubes. Following the addition of 0.2 ml chloroform to each tube, the tubes were shaken, left at room temperature for 3 min., and run in a centrifuge at 12,000 rpm for 15 min. The supernatant liquid was removed and the cells placed in new micro-centrifuge tubes. After adding an amount of isopropyl alcohol equivalent to one-half of the volume of the supernatant liquid, and mixing until homogeneous, the samples were allowed to stand at room temperature for 10 min. The supernatant liquid was removed after centrifugation at 12,000 rpm for 10 min. 1 ml 70% alcohol was added to wash out salts, followed by centrifugation for 5 min. and removal of supernatant liquid. The samples were dissolved in 50 μl DEPC-H2O after drying.
(1) cDNA synthesis: 1 μl Random hexamer primer (20 μM) and 1 μl dNTP(10 mm) were added to 3 μg RNA, which was allowed to react at 65° C. for 5 min., and then placed on ice promptly. […]

[2] = system: Vascular smooth muscle cells (cell line A10); test: MTT cell viability / observation of normal vascular smooth muscle cells (A10); conditions: A10 cells, drug concentration 0.2 mM, 48 hrs, MTT
Description: (§1) The cells (1×10^5 cells/well in 24-well plates) were cultured for 24 hrs. Different concentrations of Sal-B and its analogs (0, 50, 100, 150, 200, 250 μg/ml) were added to treat the cells. After treating for 48 hrs, 100 μl MTT solution was added to each well, and the plate was placed in an incubator for 1-4 hrs. After adding 400 μl DMSO to treat the cells for 30 min., 200 μl samples were collected and placed in a 96-well plate to conduct the absorption measurement at 550 nm.
(§2) Cell viability testing (MTT testing) was employed to determine the cytotoxicity of Sal-B and EBA to vascular smooth muscle cells. Vascular smooth muscle cells (cell line A10) were treated with Sal-B and EBA at concentrations of 0, 0.1, 0.2, 0.3, 0.4, and 0.5 mM. After treating for 48 hrs, MTT was added and allowed to react for 3 hrs at 37° C. Then, DMSO was added and allowed to react for 30 min., after that, the OD570 absorption values were measured. Cell viability was still 90% when the drug concentration reached 0.2 mM.
(§3) Sal-B's analogs, compounds A to F, were dissolved in DMSO, and then added to A10 cells to observe the results.

[3] = system: normal mammary gland cell line (A1N4); test: Cytotoxicity test on normal mammary gland cells
Description: as §1

[4] = system: ETAR gene expression in PC-3 cells; test: PCR of ETAR gene expression in PC-3 cancer cells; conditions: 48 hrs
Description: PC-3 and MCF-7 cancer cells were treated with Sal-B and EBA for 48 hrs, and the identical concentrations of cellular whole RNA were sampled for the synthesis of cDNA by using reverse transcriptase. The PCR method was then used to compare the amounts of endothelin receptor mRNA expression. While the PC-3 cells were treated with either Sal-B or EBA, its ETAR gene expression was not reduced.

[5] = MTT cell viability / observation of normal vascular smooth muscle cells (A10); conditions: rat, A10 cells, drug concentration 0.2 mM, MTT
Description: as §1, §2, §3

[6] = MTT cell viability, prostate cancer cells; conditions: human, PC-3 prostate cancer cells; PC-3, 0.2 mM, 48 hrs, MTT
Description: as §1
(§4) Cancer cells were treated with Sal-B and EBA at concentrations of 0, 0.1, 0.2, 0.3, 0.4, 0.5 mM. After treating for 48 hrs, MTT was added, and then allowed to react for 3 hrs at 37° C. After that, DMSO was added and allowed to react for 30 min., the OD570 absorption values were measured. Cell viability was above 80% when nasopharyngeal cancer cells (Hone-1) were treated with […] Sal-B and EBA. […] But the cell viability remained above 70% for treating with 0.1 mM and 0.2 mM EBA. Similar results were obtained when prostate cancer cells (PC-3) were treated with the drugs: Cell viability was above 80% for treating PC-3 cells with 0.2 mM Sal-B or EBA.
MTT testing was employed to observe the viability of cancer cells after treating with Sal-B and the six synthetic analogs.

[7] = system: nasopharyngeal cancer cells (Hone-1); test: MTT cell viability, nasopharyngeal cancer cells; conditions: Hone-1 cells, summary statement
Description: as §1, §4

[8] = MTT cell viability, nasopharyngeal cancer cells; conditions: human, Hone-1 nasopharyngeal cancer cells, 48 hrs, MTT
Description: as §1, §4

Molecule: epiblechnic acid [EBA]
- Endothelin receptor mRNA expression compared with control [1]: reduced as comparing with the control
- Cell viability [2]: 90%
- Cytotoxicity to normal cells [3]: no significant difference was observed on the cytotoxicity results
- ETAR gene expression [4]: not reduced

Molecule: O=C(/C=C/c1ccc(O)c2c1[C@H](C(=O)O[C@H](Cc1ccc(O)c(O)c1)C(=O)[O-])[C@@H](c1ccc(O)c(O)c1)O2)O[C@H](Cc1ccc(O)c(O)c1)C(=O)[O-].[Mg+2] [Sal-B, magnesium lithospermate B]
- Endothelin receptor mRNA expression compared with control [1]: reduced as comparing with the control
- viability at 48 h, 0.2 mM [5]: 90%
- Cytotoxicity to normal cells ([3]; A1N4 normal mammary gland cells, FIG. 2): no significant difference was observed on the cytotoxicity results; also recorded: not highly toxic to normal cells
- viability at 48 h, 0.2 mM [6]: > 80%
- ETAR gene expression [4]: not reduced
- Inhibition of growth of Hone-1 cells [7]: significantly inhibit the growth
- viability at 48 h, 0.05 mM ([8]; Hone-1, 0.05 mM): > 80%
- viability at 48 h ([8]; Hone-1, 0.1 mM and 0.2 mM): ~60%
